Measured values: publication PMC12418644, “Production, optimization and characterization of esterase isolated from a new endophytic Trichoderma afroharzianum strain AUMC 16,433 and its applications in dye decolorization” (Microbial Cell Factories, 2025)

Test system: T1, T. afroharzianum esterase (purified extracellular esterase)
T1 construct: 43 kDa by SDS-PAGE and gel filtration; monomeric
Test: p-nitrophenol release at […] nm, Lineweaver-Burk plot
Assay type: biochemical, Trichoderma afroharzianum
Settings: 50 mM Tris pH 8, 37 °C (standard assay), 1-10 mM substrate

CC(=O)Oc1ccc([N+](=O)[O-])cc1 [p-NPA, p-nitrophenyl acetate]
Km: 3.33 mM
